For data set [1] the following is noted: approximate class bounds given as e.g.; cited from earlier work.
Data set [2] can be described thus: color stability of red 40 in vitamin fortified beverage exposed to light (Examples 39-40). It is filed as physicochemical. The settings on record: south facing window, exposure to light. The source says: The mixture is returned to the original container and sealed. The sealed bottle is place in a south facing window for 5-6 weeks or until color changes are noted. Excess beverage is stored refrigerated in glass.

A short description of data set [3]: stabilization of citral in citric acid solution with added uncomplexed cyclodextrin (Example 20). It is filed as physicochemical. The settings on record: 0.1 or 0.2 wt % cyclodextrin, 40 or 90 degrees F., 18-48 hours. The procedure:
Citral (natural citral, SAP No. 921565, Lot No. 10000223137, available from Citrus & Allied) was cut in ethanol and diluted in citric acid to obtain a desired flavor level (e.g., 3 mL (1% citral in EtOH) per 2 L 0.6% citric acid; designated as “control” or “control freshly made” in Table 2). […] The raw area counts of various forms of citral or character-impact citrus flavor compounds (i.e., neral, geranial, and citral total, the sum of neral and geranial), and a variety of other compounds, including common citrus flavor off-note chemicals (e.g., carveol, p-cymene or p-cymene-8-ol, p,a-dimethyl styrene, mentha-1,5-dien-8-ol 1, and mentha-a,5-dien-8-ol 2) and chlorocyclohexane internal standard (designated as “CCH int std” in Table 2) were measured for each permutation of the experiment, as shown in Table 2. As used herein, the term “raw area counts” is used to refer to the area under the curve of a corresponding portion of a gas chromatogram when the samples are analyzed using a gas chromatography-mass spectrometry analysis, namely, a PEGASUS II Time-of-flight mass spectrometer (TOF-MS; available from LECO Corp., St. Joseph, Mich.). The chlorocyclohexane internal standard was included at 10 ppm per beverage to attempt to normalize the raw area counts of the other compounds of interest.

The nature of data set [4]: stabilization of citral to sunlight, off-notes by SPME GC/TOF-MS (Example 40A). It is filed as physicochemical. The text has this:
The encapsulated citral products of Example 19 were studied by exposure to summer sun for 7 days as in the above example, but with the goal of monitoring thermal and photo oxidation products using two different concentrations of cyclodextrins. […] The citral complexes were studied at two different concentrations and were designed to deliver a constant citral level when used at 0.1 wt % or 0.2 wt % in acidic beverage base consisting of 10% sucrose and 0.5% citric acid. A 0.1 wt % citral in ethanol was used as a control. 500 ml of each sample was prepared and divided into six (6) four (4) oz samples with no allowed headspace and sealed. Analysis was preformed using SPME and a LECO Pegasus III GC/TOF-MS as previously reported; samples were analyzed in triplicate using a “Latin Square” sampling protocol.

Entries after “also recorded” stand apart in the source; their conditions may differ. Peptide text beside a SMILES is read from it.

In the case of `COC(=O)[C@H](Cc1ccccc1)NC(=O)[C@@H](N)CC(=O)O` [aspartame] (H-Asp-Phe-OMe), the “log(P) value (class of guest)” value in data set [1] is listed as “less than about 1 but greater than zero”. Consider `CSC` [dimethyl sulfide], for which the “log(P) value (class of guest)” value in data set [1] is on record as “less than about 1 but greater than zero”. Take `CCc1occc(=O)c1O` [ethyl maltol]: the “log(P) value (class of guest)” value in data set [1] is “less than about 1 but greater than zero”. Regarding `CC1=C(O)C(=O)C(C)O1` (centres unmarked) [furaneol, 4-hydroxy-2,5-dimethyl-3(2H) furanone], the “log(P) value (class of guest)” value in data set [1] is “less than about 1 but greater than zero”. Consider `COc1cc(S(=O)(=O)[O-])c(C)cc1N=Nc1c(O)ccc2cc(S(=O)(=O)[O-])ccc12.[Na+].[Na+]` [red 40 color], for which the “color stability (red 40)” value in data set [2] is on record as “degrades upon exposure to light”. For the compound `OC[C@H]1O[C@@H]2O[C@H]3[C@H](O)[C@@H](O)[C@@H](O[C@H]4[C@H](O)[C@@H](O)[C@@H](O[C@H]5[C@H](O)[C@@H](O)[C@@H](O[C@H]6[C@H](O)[C@@H](O)[C@@H](O[C@H]7[C@H](O)[C@@H](O)[C@@H](O[C@H]1[C@H](O)[C@H]2O)O[C@@H]7CO)O[C@@H]6CO)O[C@@H]5CO)O[C@@H]4CO)O[C@@H]3CO` [α-cyclodextrin], the “amount of off-notes formed vs control” value in data set [3] was “off-note formation is inhibited”.

For the compound `OC[C@H]1O[C@@H]2O[C@H]3[C@H](O)[C@@H](O)[C@@H](O[C@H]4[C@H](O)[C@@H](O)[C@@H](O[C@H]5[C@H](O)[C@@H](O)[C@@H](O[C@H]6[C@H](O)[C@@H](O)[C@@H](O[C@H]7[C@H](O)[C@@H](O)[C@@H](O[C@H]8[C@H](O)[C@@H](O)[C@@H](O[C@H]1[C@H](O)[C@H]2O)O[C@@H]8CO)O[C@@H]7CO)O[C@@H]6CO)O[C@@H]5CO)O[C@@H]4CO)O[C@@H]3CO` [β-cyclodextrin], in data set [3], the “amount of citral in the solution vs control” value is listed as “increased the amount of citral in the solution” and the “amount of off-notes formed vs control” value is listed as “off-note formation is inhibited; also recorded: decreased the amount of off-notes formed”. Take hydroxypropyl-β-cyclodextrin: the figures for the “color stability (red 40)” value in data set [2] and in data set [2] (listed as hydroxyl propyl β-cyclodextrin) were “superior color stability” and “best”, respectively. The “preventing flavor offnotes, compared with β-cyclodextrin” value in data set [4] is given as “less effective than β-cyclodextrin in preventing flavor offnotes”.

These data come from patent US20100160623A1, “CYCLODEXTRIN INCLUSION COMPLEXES AND METHODS OF PREPARING SAME” (CARGILL, INCORPORATED, priority 2006, published 2010).
